Experimental data published in patent US20230066011A1, “PYRROLOPYRIMIDINE DERIVATIVE, AND PHARMACEUTICAL COMPOSITION FOR PREVENTING OR TREATING PROTEIN KINASE-RELATED DISEASE COMPRISING SAME AS ACTIVE INGREDIENT” (VORONOI CO., LTD., priority 2019, published 2023).

What was measured:
[1] = target: T1, human GST-DYRK1A (Homo sapiens, UniProt Q13627); experiment: GST-DYRK1A enzyme inhibition, ADP-Glo kinase assay; type: biochemical; conditions: ATP 10 μM, GST-DYRK1A full length, read-out: DYRK1 IC50
T1 construct: purified human GST-DYRK1A (full length, Thermo Scientifics) enzyme; purchased Thermo Scientifics
Summary of the method: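 Full-length enzyme (10 ng) was incubated with 10 μM ATP and a specific substrate for 1 h at 25 °C in 40 mM Tris-HCl pH 7.4, 20 mM MgCl2, 0.5 mg/mL BSA, 50 μM DTT. Luminescence was read against a solvent control, and IC50 values were derived from 3 data sets.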

[2] = target: LRRK2 (Homo sapiens, UniProt Q5S007); experiment: LRRK2 enzyme inhibition, ADP-Glo kinase assay; type: biochemical; design: purchased Invitrogen PR8604B; conditions: ATP 10 μM
Summary of the method: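 ADP-Glo luminescent read-out of ADP formed by purified human LRRK2 enzyme (25 ng), 10 μM ATP, 0.2 μg substrate, 25° C for 2 h, Tris-HCl pH 7.4 buffer with MgCl2, BSA, DTT. Inhibition versus untreated solvent control over twelve final concentrations (50 μM downward) gives IC50.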

[3] = target: T2, human GST-CLK1 (Homo sapiens, UniProt P49759); experiment: GST-CLK1 enzyme inhibition, ADP-Glo kinase assay; type: biochemical; conditions: ATP 10 μM, GST-CLK1 129-end
T2 construct: purified human GST-CLK1 (129-end, SignalChem) enzyme; purchased SignalChem
Summary of the method: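 ADP-Glo luminescence read-out, relative to untreated solvent control, gave IC50 (nM) from triplicate data sets. Reactions ran an hour at 25° C with 3 ng GST-CLK1 (residues 129-end), 10 μM ATP and specific substrate in Tris-HCl pH 7.4 buffer with MgCl2, BSA and DTT.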

[4] = target: LRRK2 (G2019S) (Homo sapiens, UniProt Q5S007, G2019S); experiment: LRRK2 G2019S enzyme inhibition, ADP-Glo kinase assay; type: biochemical; design: purchased SignalChem L10-12GG; conditions: ATP 25 μM
Summary of the method: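 IC50 derived from luminescent ADP-Glo readout against untreated solvent control, twelve final compound concentrations from 50 μM downward. Reaction: recombinant human LRRK2 G2019S enzyme, 25 μM ATP, substrate, pH 7.4 Tris buffer with MgCl2/BSA/DTT, 25° C. for 2 hours.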

[5] = tested on: MDA-MB-468 cell line; experiment: Inhibition of proliferation of MDA-MB-468 cancer cells (Cell Titer-Glo); type: cell-based; conditions: Homo sapiens, MDA-MB-468, 72 hours
Experimental: (§1) To evaluate an inhibitory effect on the proliferation of cancer cells, each of an MDA-MB-231 cell line (Korean Cell Line Bank #30026) and an MDA-MB-468 cell line as triple-negative breast cancer cell lines, and SHP-77 (ATCC #CRL-2195) as a small-cell lung cancer cell line was cultured in DMEM (HyClone #SH30243) or an RPMI medium (HyClone #SH3027.01) to analyze a cell growth rate. More specifically, a cell line was plated on a 96-well flat bottom plate (Corning #3903) at a density of 2,000 cells/100 μL per well, and then treated with 11 concentrations of the Example compound, a solution of which was diluted 3-fold so that a final concentration of the compound was 10.000000, 3.333333, 1.111111, 0.370370, 0.123457, 0.041152, 0.013717, 0.004572, 0.001524, 0.000508, and 0.000169 μM. After 72 hours, each of the culture media was treated with 100 μL of Cell Titer-Glo (Promega G7573), and then cultured at room temperature for 10 minutes. Then, a degree of luminescence was measured using a microplate reader. A GI50 value was calculated from the measured degree of luminescence using Prism (Version 8.2 GraphPad) software.

[6] = tested on: MDA-MB-231 cell line; experiment: Inhibition of proliferation of MDA-MB-231 cancer cells (Cell Titer-Glo); type: cell-based; conditions: Homo sapiens, 72 hours
Experimental: as §1

Chain of LRRK2 (Q5S007 970-2527 limits assumed): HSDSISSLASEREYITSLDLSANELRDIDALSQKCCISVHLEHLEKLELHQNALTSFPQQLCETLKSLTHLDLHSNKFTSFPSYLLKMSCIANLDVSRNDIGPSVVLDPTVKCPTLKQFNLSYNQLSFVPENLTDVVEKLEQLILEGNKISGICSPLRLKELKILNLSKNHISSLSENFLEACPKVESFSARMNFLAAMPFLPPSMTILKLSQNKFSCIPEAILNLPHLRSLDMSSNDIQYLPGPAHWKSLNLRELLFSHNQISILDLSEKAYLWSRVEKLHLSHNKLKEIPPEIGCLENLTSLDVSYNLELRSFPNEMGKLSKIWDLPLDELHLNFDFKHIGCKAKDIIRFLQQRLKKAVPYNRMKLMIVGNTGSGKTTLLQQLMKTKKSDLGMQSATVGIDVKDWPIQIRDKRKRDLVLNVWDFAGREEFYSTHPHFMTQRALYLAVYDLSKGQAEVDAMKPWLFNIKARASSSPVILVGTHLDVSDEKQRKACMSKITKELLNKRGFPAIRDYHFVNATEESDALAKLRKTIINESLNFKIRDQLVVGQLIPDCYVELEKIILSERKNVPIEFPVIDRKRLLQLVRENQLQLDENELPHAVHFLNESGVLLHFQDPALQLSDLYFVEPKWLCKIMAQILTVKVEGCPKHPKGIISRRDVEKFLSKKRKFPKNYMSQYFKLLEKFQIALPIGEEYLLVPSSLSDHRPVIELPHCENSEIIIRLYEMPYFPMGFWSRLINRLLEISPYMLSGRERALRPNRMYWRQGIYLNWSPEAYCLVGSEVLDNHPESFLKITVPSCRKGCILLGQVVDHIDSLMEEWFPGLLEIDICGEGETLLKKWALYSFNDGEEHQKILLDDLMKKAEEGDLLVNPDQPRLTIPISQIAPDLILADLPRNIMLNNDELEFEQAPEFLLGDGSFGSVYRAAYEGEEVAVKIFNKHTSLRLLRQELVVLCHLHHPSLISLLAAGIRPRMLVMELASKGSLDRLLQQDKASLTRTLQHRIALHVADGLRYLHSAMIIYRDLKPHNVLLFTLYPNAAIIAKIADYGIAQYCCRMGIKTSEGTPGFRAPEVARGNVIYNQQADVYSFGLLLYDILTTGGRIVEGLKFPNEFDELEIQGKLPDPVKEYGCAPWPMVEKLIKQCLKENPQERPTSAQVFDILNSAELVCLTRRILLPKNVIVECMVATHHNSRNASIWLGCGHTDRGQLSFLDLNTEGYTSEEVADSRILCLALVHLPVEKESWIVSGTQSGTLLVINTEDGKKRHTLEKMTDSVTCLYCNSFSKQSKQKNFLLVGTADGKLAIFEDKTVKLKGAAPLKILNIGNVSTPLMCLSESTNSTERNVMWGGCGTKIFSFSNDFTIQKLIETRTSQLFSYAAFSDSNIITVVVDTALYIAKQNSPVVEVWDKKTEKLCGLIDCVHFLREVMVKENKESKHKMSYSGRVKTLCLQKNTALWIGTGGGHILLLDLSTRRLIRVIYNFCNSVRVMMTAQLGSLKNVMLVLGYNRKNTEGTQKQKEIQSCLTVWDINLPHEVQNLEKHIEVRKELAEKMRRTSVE
T2 sequence (P49759 129-484 limits assumed): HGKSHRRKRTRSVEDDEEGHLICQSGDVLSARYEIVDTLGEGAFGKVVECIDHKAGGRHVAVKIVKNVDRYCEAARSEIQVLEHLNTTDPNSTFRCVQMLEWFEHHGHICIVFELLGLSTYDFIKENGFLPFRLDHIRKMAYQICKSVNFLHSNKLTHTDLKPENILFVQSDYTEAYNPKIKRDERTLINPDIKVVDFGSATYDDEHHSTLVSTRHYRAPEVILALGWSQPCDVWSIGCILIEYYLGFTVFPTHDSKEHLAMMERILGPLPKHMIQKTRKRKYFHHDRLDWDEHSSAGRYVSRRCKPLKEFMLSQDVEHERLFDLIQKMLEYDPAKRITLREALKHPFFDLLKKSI
Chain of LRRK2 (G2019S) (Q5S007 970-2527 G2019S limits assumed): as the sequence (Q5S007 970-2527 limits assumed) above, with G1050S counted along it

Row | SMILES | IC50 [1] [nM] | IC50 [2] [nM] | IC50 [3] [nM] | IC50 [4] [nM] | GI50 [5] [nM] | GI50 [6] [nM]
1 | CCCNc1nc(Nc2ccc(S(=O)(=O)N3CCC(N4CCOCC4)CC3)cc2OC)nc2[nH]cc(C#N)c12 [Example 83, 2-((2-methoxy-4-((4-morpholinopiperidin-1-yl)sulfonyl)phenyl)amino)-4-(propylamino)-7H-pyrrolo[2,3-d]pyrimidin-5-carbonitrile] | 301 to 1000 | < 100 | 101 to 300 | < 100 | < 50 | < 50
2 | COc1cc(S(=O)(=O)N2CCC(N3CCOCC3)CC2)ccc1Nc1nc(NC2CC2)c2c(C(F)(F)F)c[nH]c2n1 [Example 375, N^4-cyclopropyl-N^2-(2-methoxy-4-((4-morpholino-piperidin-1-yl)sulfonyl)phenyl)-5-(trifluoromethyl)-7H-pyrrolo[2,3-d]pyrimidine-2,4-diamine] | 301 to 1000 | < 100 | 101 to 300 | < 100 | 301 to 1000 | 101 to 300
3 | CCNc1nc(Nc2ccc(S(=O)(=O)N3CCC(N4CCOCC4)CC3)cc2OC)nc2[nH]cc(C#N)c12 [Example 82, 4-(ethylamino)-2-((2-methoxy-4-((4-morpholinopiperidin-1-yl)sulfonyl)phenyl)amino)-7H-pyrrolo[2,3-d]pyrimidine-5-carbonitrile] | 301 to 1000 | < 100 | < 100 | < 100 | < 50 | < 50
4 | COc1cc(S(=O)(=O)N2CCOCC2)ccc1Nc1nc(NC2CCC2)c2c(C(F)(F)F)c[nH]c2n1 [Example 377, N^4-cyclobuty-N2-(2-methoxy-4-(morpholino-sulfonyl)phenyl)-5-(trifluoromethyl)-7H-pyrrolo[2,3-d]pyrimidine-2,4-diamine] | 301 to 1000 | 101 to 300 | < 100 | 101 to 300 | 301 to 1000 | 301 to 1000
5 | CCNc1nc(Nc2ccc(S(=O)(=O)N3CCC(N4CCOCC4)CC3)c3c2OCC3)nc2[nH]cc(C(F)(F)F)c12 [Example 467, N^4-ethyl-N^2-(4-((4-morpholino-piperidin-1-yl)sulfonyl)-2,3-dihydrobenzo-furan-7-yl)-5-(trifluoromethyl)-7H-pyrrolo[2,3-d]pyrimidine-2,4-diamine] | 301 to 1000 | < 100 | 301 to 1000 | – | 101 to 300 | 51 to 100
6 | COc1cc(S(=O)(=O)N2CCOCC2)ccc1Nc1nc(N[C@H]2CCOC2)c2c(C(F)(F)F)c[nH]c2n1 [Example 383, (S)-N^2-(2-methoxy-4-(morpholino-sulfonyl)phenyl)-N^4-(tetrahydrofuran-3-yl)-5-(trifluoromethyl)-7H-pyrrolo[2,3-d]pyrimidine-2,4-diamine] | 301 to 1000 | – | 301 to 1000 | < 100 | 301 to 1000 | 101 to 300
7 | CC[C@H](C)Nc1nc(Nc2ccc(S(=O)(=O)N3CCC(N4CCOCC4)CC3)cc2OC)nc2[nH]cc(C#N)c12 [Example 263, (S)-4-(sec-butylamino)-2-((2-methoxy-4-((4-morpholinopiperidin-1-yl)sulfonyl)phenyl)amino)-7H-pyrrolo[2,3-d]pyrimidine-5-carbonitrile] | 301 to 1000 | – | 301 to 1000 | – | 51 to 100 | < 50
8 | COc1cc(S(=O)(=O)N2CCC(N3CCOCC3)CC2)ccc1Nc1nc(NC2CC2)c2c(C#N)c[nH]c2n1 [Example 88, 4-(cyclopropylamino)-2-((2-methoxy-4-((4-morpholinopiperidin-1-yl)sulfonyl)phenyl)amino)-7H-pyrrolo[2,3-d]pyrimidine-5-carbonitrile] | 101 to 300 | < 100 | 101 to 300 | < 100 | 51 to 100 | 101 to 300
